US20210161783A1, “USE OF SPECIFIC BENZYLIDENE MALONATES FOR PROTECTING THE SKIN FROM CHEMICALLY INDUCED STRESS” (MERCK PATENT GMBH, priority 2018, published 2021)

How the values were obtained:
interleukin 8 = settings: skin irritated by phorbol 12-myristate 13-acetate (PMA); cited from earlier work
[1] = test system: malonic dialdehyde (MDA) production in living human skin explants; assay: Ex-vivo study on living human skin explants: MDA investigation of the culture medium (TBAR, spectrofluorimetry); type: cell-based; settings: for MDA concentration in the culture medium of the explant treated with substance and the irritant (average) / MDA concentration in the culture medium of the explant treated without irritant, but with substance (average): 0.5% solution in ethanol (gel D as such), day 4; for MDA concentration in the culture medium of the explant treated with substance and the irritant (average): 2 mg/cm^2 once daily D0-D3, irritant (metals/heavy metals + 0.1% diesel particles PM2.5) 24 h, irritant only 143.6, untreated 98.3; for Average MDA concentration in the presence of substance attributable to the irritant alone: difference with irritant minus without irritant, irritant alone without substance 45.3; for Lower MDA production (change) versus irritant only: explants with substance and irritant, compared with explant treated only with irritant; for MDA concentration in the culture medium of the explant treated without irritant, but with substance (average): no irritant, once daily D0-D3, untreated 98.3; for Hindrance of MDA production standardised to the amount of MDA released only by the irritant: standardised to MDA attributable to irritant alone (45.3 nmol/l)
Experimental: (§1) An ex-vivo study was carried out on skin explants from a person […] (P1922-AB54). The explants are kept in a functioning state in a BEM culture medium (explants medium from BIO-EC) at 37° C. in a moist atmosphere containing 5% of CO2. 4 explants are used in each case in an experimental series of a substance, the control or the reference.
(§2) Compounds A and B to be investigated are employed in 0.5% solution in ethanol. The influence of ethanol on the explant is investigated in parallel (compound C=ethanol). The reference employed is the gel from DECLÉOR with the article number 56300 (gel D; decléor gelée hydratante anti-pollution), which is known for its protection of the skin against chemicals, heavy metals and diesel particles. The control used is an untreated sample which only comes into contact with the culture medium.
(§3) The explants are treated once daily for 4 days (day 0=D0, day 1=D1, day 2=D2 and day 3=D3) with the solutions to be tested containing compound A and B as well as compound C and gel D (2 μl per explant corresponding to 2 mg/cm^2). On D3, the solutions to be tested and the reference are treated 4 hours before application of the irritant.
(§4) On D3, the explants are treated with the irritant containing the metals/heavy metals and diesel particles, as described above, where a paper disc with a diameter of 9 mm is soaked with 30 μl of the irritant. The irritant acts on the respective explant for 24 hours.
The culture medium of the treated explants is investigated for the compound MDA. MDA stands for malonic dialdehyde (propanedial) and is a known marker for oxidative stress, as described above.
The culture medium of each investigated explant is mixed with a salt medium (HBBS Medium Hank's Balanced Salts) and a TBAR solution and heated in a water bath at 80° C. for 15 minutes. The TBAR solution contains thiobarbituric acid, hydrochloric acid and trichloroacetic acid. Many substances which are unrelated to the lipoperoxidation react with the thiobarbituric acid, for example glucose. After cooling, malonic dialdehyde (MDA) is extracted with butanol in a liquid/liquid extraction, and the then investigated by spectrofluorimetry (excitation 515 nm, emission: 550 nm). The MDA concentration indicated below is quoted in nmol/l.
1. For interpretation of the results, it is taken into account that the culture medium of the untreated explants (without irritant and without compounds A, B, C and gel D) also contains MDA on day 4.
For analysis of the results, this amount of MDA present on average in the untreated explants is therefore subtracted from the values obtained for the explant samples in order to determine the influence of MDA production owing to the irritant.

[2] = test system: epidermis of living human skin explants; assay: Ex-vivo study on living human skin explants: histological investigation (Masson's trichrome staining); type: cell-based; settings: for Epidermal morphological change compared with the untreated sample: explants treated with substance and the irritant, day 4, Masson staining
Experimental: as §1, §2, §3, §4
On day 4 (D4), three explants are collected for each of the compounds to be investigated. Each explant is divided, and one part is frozen at −80° C., the second half is fixed in a buffered formol solution (formaldehyde solution). The fourth explant remains frozen at −80° C.
The explants fixed for 24 hours are dehydrogenated and impregnated in paraffin. Areas with a thickness of 5 μm are then cut and investigated under the microscope (for example Leica DMLB or Olympus BX43). Corresponding images are produced, using the Masson staining method (Masson's trichrome staining, Goldner variant), a standard colouring method in histology. […]

Row | SMILES | Excretion of cytokines, in particular interleukin 8 (interleukin 8) | MDA concentration in the culture medium of the explant treated with substance and the irritant (average) [1] [nmol/L] | Average MDA concentration in the presence of substance attributable to the irritant alone [1] [nmol/L] | Lower MDA production (change) versus irritant only [1] [%] | MDA concentration in the culture medium of the explant treated without irritant, but with substance (average) [1] [nmol/L] | Hindrance of MDA production standardised to the amount of MDA released only by the irritant [1] [%] | Epidermal morphological change compared with the untreated sample [2] | Worsening of the condition of the epidermis (score of detectable changes) ([2]; explants with substance and irritant, compared with untreated control and with compound A plus irritant)
1 | COc1cc(C=C(C(=O)OC(C)C)C(=O)OC(C)C)ccc1O [compound B, diisopropyl 3-methoxy-4-hydroxybenzylidenemalonate] | reduces the excretion of cytokines | 135.5 | 41.9 | 6 | 93.6 | 8 | an epidermal morphological change | about 55%
2 | CCCCC(CC)COC(=O)C(=Cc1cc(OC)c(O)c(OC)c1)C(=O)OCC(CC)CCCC (centres unmarked) [compound A, di(2-ethylhexyl) 3,5-dimethoxy-4-hydroxybenzylidenemalonate] |  | 129.0 | 34.3 | 10 | 94.7 | 24 | no epidermal change | 
